Laboratory results reported in the supplement of paper PMC10307832.

Key:
Assay in all cases: relative viability (nuclei count vs DMSO), 5 days (fraction); higher = more cells survive
VX-11e + OSI-027 = compound: CC1=CN=C(N=C1C2=CNC(=C2)C(=O)N[C@H](CO)C3=CC(=CC=C3)Cl)NC4=C(C=C(C=C4)F)Cl [VX-11e] + COc1cccc2cc(-c3nc([C@H]4CC[C@H](C(=O)O)CC4)n4ncnc(N)c34)[nH]c12 [OSI-027] (partner 0.5 µM)
In short: (§1)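 Lung cancer cell lines, seeded in 1536-well plates, were treated the following day by pin tool with a single drug or with five library-drug doses (not always all listed) in √10 steps on top of a fixed anchor-drug dose. Cells were fixed and nuclei stained in one step after 5 days, and nuclei were counted. Relative viability is the nuclei count for treated wells divided by that for vehicle wells, reported as medians of duplicate plates.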

VX-11e + Trametinib = compound: CC1=CN=C(N=C1C2=CNC(=C2)C(=O)N[C@H](CO)C3=CC(=CC=C3)Cl)NC4=C(C=C(C=C4)F)Cl [VX-11e] + CC(=O)Nc1cccc(-n2c(=O)n(C3CC3)c(=O)c3c(Nc4ccc(I)cc4F)n(C)c(=O)c(C)c32)c1 [Trametinib] (partner 0.02 µM)
In short: as §1

VX-11e + Phenformin = compound: CC1=CN=C(N=C1C2=CNC(=C2)C(=O)N[C@H](CO)C3=CC(=CC=C3)Cl)NC4=C(C=C(C=C4)F)Cl [VX-11e] + N=C(N)NC(=N)NCCc1ccccc1 [Phenformin] (partner 250 µM)
In short: as §1

VX-11e + Crizotinib = compound: CC1=CN=C(N=C1C2=CNC(=C2)C(=O)N[C@H](CO)C3=CC(=CC=C3)Cl)NC4=C(C=C(C=C4)F)Cl [VX-11e] + C[C@@H](Oc1cc(-c2cnn(C3CCNCC3)c2)cnc1N)c1c(Cl)ccc(F)c1Cl [Crizotinib] (partner 1 µM)
In short: as §1

NCI-H661
relative viability (VX-11e + OSI-027; first compound 0.04 µM): 0.727 | relative viability (VX-11e + OSI-027; first compound 0.1265 µM): 0.632 | relative viability (VX-11e + OSI-027; first compound 0.4 µM): 0.751 | relative viability (VX-11e + OSI-027; first compound 1.265 µM): 0.625 | relative viability (VX-11e + OSI-027; first compound 4 µM): 0.396 | relative viability (VX-11e + Trametinib; first compound 0.04 µM): 0.568 | relative viability (VX-11e + Trametinib; first compound 0.1265 µM): 0.542 | relative viability (VX-11e + Trametinib; first compound 0.4 µM): 0.476 | relative viability (VX-11e + Trametinib; first compound 1.265 µM): 0.506 | relative viability (VX-11e + Trametinib; first compound 4 µM): 0.376 | relative viability (VX-11e + Phenformin; first compound 0.04 µM): 0.242 | relative viability (VX-11e + Phenformin; first compound 0.1265 µM): 0.324 | relative viability (VX-11e + Phenformin; first compound 0.4 µM): 0.275 | relative viability (VX-11e + Phenformin; first compound 1.265 µM): 0.293 | relative viability (VX-11e + Phenformin; first compound 4 µM): 0.27 | relative viability (VX-11e + Crizotinib; first compound 0.1265 µM): 0.974 | relative viability (VX-11e + Crizotinib; first compound 0.4 µM): 1 | relative viability (VX-11e + Crizotinib; first compound 1.265 µM): 1.16 | relative viability (VX-11e + Crizotinib; first compound 4 µM): 0.934

NCI-H727
relative viability (VX-11e + OSI-027; first compound 0.04 µM): 0.353 | relative viability (VX-11e + OSI-027; first compound 0.1265 µM): 0.678 | relative viability (VX-11e + OSI-027; first compound 0.4 µM): 0.522 | relative viability (VX-11e + OSI-027; first compound 1.265 µM): 0.447 | relative viability (VX-11e + OSI-027; first compound 4 µM): 0.284 | relative viability (VX-11e + Trametinib; first compound 0.04 µM): 0.415 | relative viability (VX-11e + Trametinib; first compound 0.1265 µM): 0.374 | relative viability (VX-11e + Trametinib; first compound 0.4 µM): 0.379 | relative viability (VX-11e + Trametinib; first compound 1.265 µM): 0.365 | relative viability (VX-11e + Trametinib; first compound 4 µM): 0.346 | relative viability (VX-11e + Phenformin; first compound 0.04 µM): 0.439 | relative viability (VX-11e + Phenformin; first compound 0.1265 µM): 0.475 | relative viability (VX-11e + Phenformin; first compound 0.4 µM): 0.451 | relative viability (VX-11e + Phenformin; first compound 1.265 µM): 0.359 | relative viability (VX-11e + Phenformin; first compound 4 µM): 0.353 | relative viability (VX-11e + Crizotinib; first compound 0.04 µM): 0.722 | relative viability (VX-11e + Crizotinib; first compound 0.1265 µM): 0.847 | relative viability (VX-11e + Crizotinib; first compound 0.4 µM): 0.712 | relative viability (VX-11e + Crizotinib; first compound 1.265 µM): 0.419 | relative viability (VX-11e + Crizotinib; first compound 4 µM): 0.243

NCI-H838
relative viability (VX-11e + OSI-027; first compound 0.04 µM): 0.356 | relative viability (VX-11e + OSI-027; first compound 0.1265 µM): 0.413 | relative viability (VX-11e + OSI-027; first compound 0.4 µM): 0.3 | relative viability (VX-11e + OSI-027; first compound 1.265 µM): 0.347 | relative viability (VX-11e + OSI-027; first compound 4 µM): 0.262 | relative viability (VX-11e + Trametinib; first compound 0.04 µM): 0.457 | relative viability (VX-11e + Trametinib; first compound 0.1265 µM): 0.505 | relative viability (VX-11e + Trametinib; first compound 0.4 µM): 0.513 | relative viability (VX-11e + Trametinib; first compound 1.265 µM): 0.484 | relative viability (VX-11e + Trametinib; first compound 4 µM): 0.455 | relative viability (VX-11e + Phenformin; first compound 0.04 µM): 0.539 | relative viability (VX-11e + Phenformin; first compound 0.1265 µM): 0.604 | relative viability (VX-11e + Phenformin; first compound 0.4 µM): 0.17 | relative viability (VX-11e + Phenformin; first compound 1.265 µM): 0.445 | relative viability (VX-11e + Phenformin; first compound 4 µM): 0.379 | relative viability (VX-11e + Crizotinib; first compound 0.04 µM): 0.888 | relative viability (VX-11e + Crizotinib; first compound 0.1265 µM): 0.82 | relative viability (VX-11e + Crizotinib; first compound 0.4 µM): 0.798 | relative viability (VX-11e + Crizotinib; first compound 1.265 µM): 0.881 | relative viability (VX-11e + Crizotinib; first compound 4 µM): 0.501

NCI-H1355
relative viability (VX-11e + OSI-027; first compound 0.04 µM): 0.302 | relative viability (VX-11e + OSI-027; first compound 0.1265 µM): 0.311 | relative viability (VX-11e + OSI-027; first compound 0.4 µM): 0.197 | relative viability (VX-11e + OSI-027; first compound 1.265 µM): 0.256 | relative viability (VX-11e + OSI-027; first compound 4 µM): 0.224 | relative viability (VX-11e + Trametinib; first compound 0.04 µM): 0.406 | relative viability (VX-11e + Trametinib; first compound 0.1265 µM): 0.411 | relative viability (VX-11e + Trametinib; first compound 0.4 µM): 0.372 | relative viability (VX-11e + Trametinib; first compound 1.265 µM): 0.33 | relative viability (VX-11e + Trametinib; first compound 4 µM): 0.221 | relative viability (VX-11e + Phenformin; first compound 0.04 µM): 0.417 | relative viability (VX-11e + Phenformin; first compound 0.1265 µM): 0.435 | relative viability (VX-11e + Phenformin; first compound 0.4 µM): 0.34 | relative viability (VX-11e + Phenformin; first compound 1.265 µM): 0.379 | relative viability (VX-11e + Phenformin; first compound 4 µM): 0.348 | relative viability (VX-11e + Crizotinib; first compound 0.04 µM): 1.1 | relative viability (VX-11e + Crizotinib; first compound 0.1265 µM): 0.993 | relative viability (VX-11e + Crizotinib; first compound 0.4 µM): 1.09 | relative viability (VX-11e + Crizotinib; first compound 1.265 µM): 0.875 | relative viability (VX-11e + Crizotinib; first compound 4 µM): 0.479
